According to ChEMBL document CHEMBL5215001, “Diaporisoindole B Reduces Lipid Accumulation in THP-1 Macrophage Cells via MAPKs and PPARγ-LXRα Pathways and Promotes the Reverse Cholesterol Transport by Upregulating SR-B1 and LDLR in HepG2 Cells” (J Nat Prod, 2022):
Calls of active or inactive are those of the source. No cut-off for these calls is given here.

What was measured:
THP-1 [1] = assay: Inhibition of ox-LDL uptake in human THP-1 foam cells assessed as downregulation of CD36 expression by measuring reduction in total ERK protein expression at 2.5 to 15 uM by Western blot analysis; type: functional, cell-based; settings: dose 2.5-15 µM
THP-1 [2] = assay: Induction of lipid efflux in human THP-1 cells assessed as upregulation of PPARgamma protein expression at higher concentrations by Western blot analysis; type: functional, cell-based
THP-1 [3] = assay: Inhibition of ox-LDL uptake in human THP-1 foam cells assessed as downregulation of CD36 expression by measuring reduction in phosphorylated p38 protein expression at 2.5 to 15 uM by Western blot analysis; type: functional, cell-based; settings: dose 2.5-15 µM
THP-1 [4] = assay: Cytotoxicity against human THP-1 cells assessed as inhibition of cell growth at 0 to 15 uM incubated for 24 hrs by CCK-8 assay; type: toxicity, cell-based; settings: thp-1, 24 h, dose 0-15 µM
HepG2 [5] = assay: Inhibition of ox-LDL induced lipid accumulation in human HepG2 cells assessed as reduction in total triglyceride level at 2.5 to 15 uM; type: functional, cell-based; settings: dose 2.5-15 µM
HepG2 [6] = assay: Downregulation of SREBP2 mRNA expression in human HepG2 cells at 2.5 to 15 uM by qRT-PCR analysis; type: functional, cell-based; settings: dose 2.5-15 µM
HepG2 [7] = assay: Reduction in triglyceride level in human HepG2 cells assessed as reduction in ACC mRNA expression by qRT-PCR analysis; type: functional, cell-based; settings: dose 2.5-15 µM, DDE = dose-dependent effect
HepG2 [8] = assay: Downregulation of SREBP1c protein expression in human HepG2 cells at 2.5 to 15 uM by Western blot analysis; type: functional, cell-based; settings: dose 2.5-15 µM
THP-1 [9] = assay: Inhibition of foam cells formation in human THP-1 cells assessed as upregulation of SR-B1 protein expression at 2.5 to 15 uM by Western blot analysis; type: functional, cell-based; settings: dose 2.5-15 µM
THP-1 [10] = assay: Inhibition of ox-LDL induced lipid accumulation in human THP-1 cells assessed as reduction in total cholesterol level at 2.5 to 15 uM; type: functional, cell-based; settings: dose 2.5-15 µM
THP-1 [11] = assay: Inhibition of ox-LDL uptake in human THP-1 foam cells assessed as downregulation of CD36 expression by measuring reduction in total p38 protein expression at 2.5 to 15 uM by Western blot analysis; type: functional, cell-based; settings: dose 2.5-15 µM
HepG2 [12] = assay: Induction of reverse cholesterol transport in human HepG2 cells assessed as reduction in PCSK9 protein expression at 2.5 to 15 uM by Western blot analysis; type: functional, cell-based; settings: dose 2.5-15 µM
HepG2 [13] = assay: Cytotoxicity against human HepG2 cells assessed as inhibition of cell growth at 0 to 15 uM incubated for 24 hrs by CCK-8 assay; type: toxicity, cell-based; settings: hepg2, 24 h, dose 0-15 µM
THP-1 [14] = assay: Inhibition of ox-LDL uptake in human THP-1 foam cells assessed as downregulation of CD36 expression by measuring reduction in total JNK protein expression at 2.5 to 15 uM by Western blot analysis; type: functional, cell-based; settings: dose 2.5-15 µM
THP-1 [15] = assay: Inhibition of foam cells formation in human THP-1 cells assessed as upregulation of SR-B1 mRNA expression at 2.5 to 15 uM by RT-PCR analysis; type: functional, cell-based; settings: dose 2.5-15 µM
HepG2 [16] = assay: Reduction in triglyceride level in human HepG2 cells assessed as reduction in ACC protein expression by Western blot analysis; type: functional, cell-based; settings: dose 2.5-15 µM, DDE = dose-dependent effect
HepG2 [17] = assay: Downregulation of SREBP2 protein expression in human HepG2 cells at 2.5 to 15 uM by Western blot analysis; type: functional, cell-based; settings: dose 2.5-15 µM
THP-1 [18] = assay: Inhibition of foam cells formation in human THP-1 cells assessed as upregulation of ABCA1 protein expression at 2.5 to 15 uM by Western blot analysis; type: functional, cell-based; settings: dose 2.5-15 µM
THP-1 [19] = assay: Induction of lipid efflux in human THP-1 cells assessed as upregulation of LXRalpha protein expression at higher concentrations by Western blot analysis; type: functional, cell-based
HepG2 [20] = assay: Reduction in cholesterol biosynthesis in human HepG2 cells assessed as reduction in HMGCR mRNA expression at 2.5 to 15 uM by qRT-PCR analysis; type: functional, cell-based; settings: dose 2.5-15 µM
THP-1 [21] = assay: Inhibition of foam cells formation in human THP-1 cells assessed as reduction in CD36 protein expression at 2.5 to 15 uM by Western blot analysis; type: functional, cell-based; settings: dose 2.5-15 µM
HepG2 [22] = assay: Induction of reverse cholesterol transport in human HepG2 cells assessed as reduction in PCSK9 mRNA expression at 2.5 to 15 uM by qRT-PCR analysis; type: functional, cell-based; settings: dose 2.5-15 µM
HepG2 [23] = assay: Reduction in triglyceride level in human HepG2 cells assessed as reduction in FAS mRNA expression by qRT-PCR analysis; type: functional, cell-based; settings: dose 2.5-15 µM, DDE = dose-dependent effect
THP-1 [24] = assay: Induction of lipid efflux in human THP-1 cells assessed as upregulation of LXRalpha mRNA expression by qRT-PCR analysis; type: functional, cell-based; settings: dose 2.5-15 µM, DDE = dose-dependent effect
THP-1 [25] = assay: Inhibition of ox-LDL induced lipid accumulation in human THP-1 cells assessed as reduction in intracellular lipid droplets at 2.5 to 15 uM by oil red O staining based inverted microscopic analysis; type: functional, cell-based; settings: dose 2.5-15 µM
THP-1 [26] = assay: Inhibition of ox-LDL induced lipid accumulation in human THP-1 cells assessed as reduction oxidized LDL uptake at 2.5 to 15 uM incubated for 4 hrs by Hoechst 33258 dye based confocal microscopic analysis; type: functional, cell-based; settings: dose 2.5-15 µM
HepG2 [27] = assay: Inhibition of ox-LDL induced lipid accumulation in human HepG2 cells assessed as reduction in total cholesterol level at 2.5 to 15 uM; type: functional, cell-based; settings: dose 2.5-15 µM
THP-1 [28] = assay: Inhibition of ox-LDL uptake in human THP-1 foam cells assessed as downregulation of CD36 expression by measuring reduction in pJNK protein expression at 2.5 to 15 uM by Western blot analysis; type: functional, cell-based; settings: dose 2.5-15 µM
THP-1 [29] = assay: Induction of lipid efflux in human THP-1 cells assessed as upregulation of PPARgamma mRNA expression by qRT-PCR analysis; type: functional, cell-based; settings: dose 2.5-15 µM, DDE = dose-dependent effect
HepG2 [30] = assay: Reduction in triglyceride level in human HepG2 cells assessed as reduction in FAS protein expression by Western blot analysis; type: functional, cell-based; settings: dose 2.5-15 µM, DDE = dose-dependent effect
THP-1 [31] = assay: Inhibition of ox-LDL induced lipid accumulation in human THP-1 cells assessed as reduction in total triglyceride level at 2.5 to 15 uM; type: functional, cell-based; settings: dose 2.5-15 µM
THP-1 [32] = assay: Inhibition of ox-LDL uptake in human THP-1 foam cells assessed as downregulation of CD36 expression by measuring reduction in MAPK mRNA expression at 2.5 to 15 uM by qRT-PCR analysis; type: functional, cell-based; settings: dose 2.5-15 µM
THP-1 [33] = assay: Inhibition of ox-LDL uptake in human THP-1 foam cells assessed as downregulation of CD36 expression by measuring reduction in pERK protein expression at 2.5 to 15 uM by Western blot analysis; type: functional, cell-based; settings: dose 2.5-15 µM
THP-1 [34] = assay: Inhibition of ox-LDL induced lipid accumulation in human THP-1 cells assessed as increase in cholesterol efflux rate incubated for 24 hrs by liquid scintillation counting analysis; type: functional, cell-based; settings: dose 2.5-15 µM, DDE = dose-dependent effect
HepG2 [35] = assay: Induction of reverse cholesterol transport in human HepG2 cells assessed as increase in SR-B1 mRNA expression by qRT-PCR analysis; type: functional, cell-based; settings: dose 2.5-15 µM, DDE = dose-dependent effect
THP-1 [36] = assay: Inhibition of foam cells formation in human THP-1 cells assessed as upregulation of ABCG1 protein expression at 2.5 to 15 uM by Western blot analysis; type: functional, cell-based; settings: dose 2.5-15 µM
HepG2 [37] = assay: Induction of reverse cholesterol transport in human HepG2 cells assessed as upregulation of LDLR protein expression by Western blot analysis; type: functional, cell-based; settings: dose 2.5-15 µM, DDE = dose-dependent effect
HepG2 [38] = assay: Induction of reverse cholesterol transport in human HepG2 cells assessed as increase in SR-B1 protein expression by Western blot analysis; type: functional, cell-based; settings: dose 2.5-15 µM, DDE = dose-dependent effect
HepG2 [39] = assay: Downregulation of SREBP1c mRNA expression in human HepG2 cells at 2.5 to 15 uM by qRT-PCR analysis; type: functional, cell-based; settings: dose 2.5-15 µM
THP-1 [40] = assay: Inhibition of foam cells formation in human THP-1 cells assessed as upregulation of ABCA1 mRNA expression at 2.5 to 15 uM by RT-PCR analysis; type: functional, cell-based; settings: dose 2.5-15 µM
THP-1 [41] = assay: Inhibition of foam cells formation in human THP-1 cells assessed as reduction in CD36 mRNA expression at 2.5 to 15 uM by RT-PCR analysis; type: functional, cell-based; settings: dose 2.5-15 µM

`CC(C)=CCc1ccc(O)c2c1[C@H](c1cc(C)cc3c1O[C@H](C(C)(C)O)CO3)NC2=O` was tested, and the inhibition (THP-1 [1]) was “Active”, the Activity (THP-1 [2]) was “Active” and the inhibition (THP-1 [3]) was “Active”. The Activity (THP-1 [4]) was “Non-Toxic”, the inhibition (HepG2 [5]) was “Active” and the Activity (HepG2 [6]) was “Active”. For the same compound, the Activity (HepG2 [7]) was “Dde”, the Activity (HepG2 [8]) was “Active” and the inhibition (THP-1 [9]) was “Active”. For the same compound, the inhibition (THP-1 [10]) was “Active”, the inhibition (THP-1 [11]) was “Active” and the Activity (HepG2 [12]) was “Active”. For the same compound, the Activity (HepG2 [13]) was “Non-Toxic”, the inhibition (THP-1 [14]) was “Active” and the inhibition (THP-1 [15]) was “Active”. For the same compound, the Activity (HepG2 [16]) was “Dde”, the Activity (HepG2 [17]) was “Active” and the inhibition (THP-1 [18]) was “Active”. For the same compound, the Activity (THP-1 [19]) was “Active”, the Activity (HepG2 [20]) was “Active” and the inhibition (THP-1 [21]) was “Active”. For the same compound, the Activity (HepG2 [22]) was “Active”, the Activity (HepG2 [23]) was “Dde” and the Activity (THP-1 [24]) was “Dde”. For the same compound, the inhibition (THP-1 [25]) was “Active”, the inhibition (THP-1 [26]) was “Active” and the inhibition (HepG2 [27]) was “Active”. For the same compound, the inhibition (THP-1 [28]) was “Active”, the Activity (THP-1 [29]) was “Dde” and the Activity (HepG2 [30]) was “Dde”. The inhibition (THP-1 [31]) was “Active”, the inhibition (THP-1 [32]) was “Active” and the inhibition (THP-1 [33]) was “Active”. The inhibition (THP-1 [34]) was “Dde”, the Activity (HepG2 [35]) was “Dde” and the inhibition (THP-1 [36]) was “Active”. The Activity (HepG2 [37]) was “Dde”, the Activity (HepG2 [38]) was “Dde” and the Activity (HepG2 [39]) was “Active”. For the same compound, the inhibition (THP-1 [40]) was “Active” and the inhibition (THP-1 [41]) was “Active”.
